This is an account of results in patent US20260354377A1, “INSECTICIDAL AND ARACHNIDICIDAL COMPOSITIONS AND USES THEREOF” (priority 2023, published 2026).

Data set [1] can be described thus: Stability of aqueous dispersions of components. Format: physicochemical. The note with it: laboratory homogeniser dispersion in water.
For data set [2], the system named is Blata orientalis. The experiment in a line: Evaluation of insecticidal effect of individual components (Example 9). Format: in vivo, Oriental cockroach. The note with it: 0.3 grams on back, pairs; for Alive: weight %: caprylic acid 0.8, Miglyol 0.2, Tween 80 0.015, lecithin 0.15, DPPG 0.12, xanthan gum 0.0075; for Dead: caprylic acid 0.8, Emulsion Table 1 5.0 weight %. The procedure:
In order to evaluate the effect of individual components, the higher concentration of each was used, these are marked with an asterisk as presented in Table 9
The cockroach Blata orientalis was used as described in Example 1 part 3 because of its size, ease of application and predictable response to the formulation.
Pairs of insects were treated by applying 0.3 grams (ml) of test items from Table 9 above directly onto their backs following which individual insects were placed in separate plastic containers and observed over a period of one hour and overnight. A 5% aqueous dispersion of the emulsion from Table 1 and sterile distilled water were used as controls.

Data set [3] deals with Blata orientalis. The experiment in a line: Efficacy of NAC and PCA supplemented Reactive Emulsions, spray (Example 13). It is filed as in vivo, Oriental Cockroach. The note with it: 50 mM citrate buffer, NAC or PCA 0.1%, emulsion 5% where present; for Alive / Immobile / Moribund: ten insects. The method, then:
In one embodiment of the present invention, Reactive Emulsions of this invention are acidic and are kept at or below pH 5.5 to retain reactivity. For this reason 0.1% W/W solutions of NAC and PCA were prepared in 50 mM sodium citrate buffer at pH 5.0 and reduced fatty acid Reactive Emulsion concentrate (Table 15) was added to these at 5% by weight.
NAC and PCA controls were prepared by dissolving 0.1% of each in 50 mM sodium citrate buffer • reduced fatty acid Reactive Emulsions were used to illustrate the additive effect of NAC and PCA because the rate of activity of higher concentration fatty acid Emulsions would swamp the effect.
A 5% by weight suspension of Emulsion concentrate was prepared in 50 mM sodium citrate buffer without either NAC or PCA was prepared as a negative control and 50 mM buffer on its own was used as a blank.
The Oriental Cockroach Blata Orientalis was used to evaluate the efficacy of the NAC and PCA supplemented reactive emulsion and the experimental design was the same as in Example 1. Individual insects were lifted with tweezers and sprayed with either NAC or PCA supplemented test formulations, negative control or buffer blank, ten insects in each case, and evaluated after 1 hour and 10 hours.

The nature of data set [4]: Solubility and solution properties. The note with it: for solubility: water or oil. The procedure: An aqueous dispersion of de-lipidised lecithin and DPPG is prepared by blending the component with water at the desired concentration and allowing at least one hour to fully hydrate.
Both of these are water soluble and may be added to the water phase of either the emulsion concentrate or the diluted suspension.

Data set [5] deals with lice. The note with it: approved by FDA as a 1% solution; cited from earlier work.
For data set [6], the system named is Blata orientalis. The experiment in a line: Efficacy of Permethrin delivered in reduced fatty acid Reactive Emulsion, spray (Example 12). Format: in vivo, Oriental Cockroach. The note with it: emulsion concentrates diluted to 5% in water, where present, 0.1%. The procedure: Permethrin was added to the oil phase at 2 grams in 20 of total oil (oil phase) which is 2% of the concentrated reactive emulsion. For use in the test the concentrate was diluted to 5% in water, that is 1% oil phase containing 0.1% Permethrin (10% of recommended dose).
A Reactive Emulsion control was prepared using the formulation in Table 13 by replacing Permethrin with Miglyol at 15% and free fatty acid at 5%.
The Oriental Cockroach Blata Orientalis was used to evaluate the efficacy of the non-reactive emulsion and the experimental design was the same as in Example 1. Individual insects were lifted with tweezers and sprayed with either non-reactive test formulation, positive control or water blank, ten insects in each case, and evaluated after 1 hour and 10 hours.

In data set [7] the test system is hematophagous insects. The conditions noted are these: cited from earlier work.

“Also recorded” adds a separate entry of the source.

Take `CCCCCCCC(=O)O` [Caprylic acid]: the “stability of aqueous dispersion” value in data set [1] is “co-acervate and settle out within minutes of being formed”. Further, the Alive turned out to be 2 in data set [2] (1 hour post treatment) and 1 in data set [2] (18 hours post treatment). Also, the Dead in data set [2] (18 hours post treatment) is 1; in data set [2] (18 hours post treatment, listed as caprylic acid), “one”.
`CCCCCCCCCCCCCCCC(=O)OCC(COP(=O)(O)OCC(O)CO)OC(=O)CCCCCCCCCCCCCCC` (centres unmarked) [DPPG, di-palmitoyl phosphatidyl glycerol]: the “stability of aqueous dispersion” value in data set [1] is “tendency to settle out”. The Alive in data set [2] (1 hour post treatment) and in data set [2] (18 hours post treatment) was 2 each time.
In the case of `CC(=O)N[C@@H](CS)C(=O)O` [N-acetyl Cysteine, N-Acetyl Cysteine], the Mortality / efficacy is recorded as 0% in data set [3] (1 hour, 60 min); “no effect” in data set [3] (1 hour, listed as NAC); 10% in data set [3] (10 hours, 600 min); 10% in data set [3] (10 hours, listed as NAC, 600 min). In addition, the figures for the Alive in data set [3] (1 hour) and in data set [3] (10 hours) were 10 and 9, respectively. Besides, the Immobile in data set [3] (1 hour) turned out to be 0; in data set [3] (10 hours) it was 1. Also, the Moribund in data set [3] (1 hour) and in data set [3] (10 hours) was 0 throughout. Also, in data set [4] (in solution), the pH in solution entry is reported as “slightly basic pH in solution”. In addition, in data set [4], the solubility result was “water soluble”.
Consider `CC1(C)C(C=C(Cl)Cl)C1C(=O)OCc1cccc(Oc2ccccc2)c1` (centres unmarked) [Permethrin], for which, in data set [5], the effectiveness against lice result is given as “effective against adult lice but not their eggs”. Moreover, in data set [4], the solubility entry is listed as “sparingly soluble in water; also recorded: basically oil soluble”. Also, the Mortality in data set [6] (1 hour) turned out to be 0%. In data set [6] (1 hour, ten insects), this compound had an Alive of 10. The compound further displayed a Mortality / efficacy in data set [6] (10 hours, 600 min) of 30%. Besides, in data set [6] (10 hours, ten insects), the Alive turned out to be 7, the Immobile came to 0 and the Moribund is listed as 3.
In the case of `CCC(C)OC(=O)N1CCCCC1CCO` (centres unmarked) [Picaridin], the repellent effect result in data set [7] is on record as “broad spectrum effects combined with low toxicity”.
Take `O=C1CCC(C(=O)O)N1` (centres unmarked) [Pyrrolidone Carboxylic Acid, 2-Pyrrolidone-5-Carboxylic Acid]: the Mortality / efficacy in data set [3] (1 hour) was found to be 0%; in data set [3] (10 hours, 600 min), 20%; in data set [3] (10 hours, listed as PCA, 600 min) it was 20%. Also, the values for the Alive in data set [3] (1 hour) and in data set [3] (10 hours) were 10 and 8, respectively. Besides, the Immobile in data set [3] (1 hour) and in data set [3] (10 hours) was 0 in each case. For the same compound, the results for the Moribund in data set [3] (1 hour) and in data set [3] (10 hours) were 0 and 2, respectively.
